Each structure is given as a SMILES string. Several values for one entry are separate records, joined by “and”; a condition that tells them apart may be missing. Equal values may be shown once.

Here are results for one compound from patent US7338941B2, “Pharmaceutical compositions for lowering blood glucose and blood cholesterol levels” (Diakron Pharmaceuticals, Inc., priority 2002, dated 2008).

The subject of the experiment is db/db mice. Put plainly: Blood-sugar-lowering activity in db/db obese mice (oral, daily for 5 days). The format is in vivo. Conditions: for % change in blood glucose after 5 days of treatment (decrease): reduction vs day 0. Here is the method:
Db/db mice are commonly used as an in vivo model for studying type II diabetes in animals. Db/db (C57BLKS/J-m+/+Lepr^db) obese mice are obtained from Jackson Laboratories (Maine) and maintained in a temperature-controlled (25° C.) facility with a strict 12-h light/dark cycle and given free access to food and water. Mice are fed pelleted rodent chow which is low in fat (4% w/w). Fasting mice are orally administered with isovitexin dissolved in aqueous vehicle containing 50% PEG50% (10 mg/kg body weight) in a total volume of 200 μL or vehicle alone daily for 5 days. Food is removed from mice 4 hours before the collection of blood from the tail vein. Blood is obtained from mice by drawing one drop of blood (˜50 μL) from the tail vein for glucose analysis. Blood glucose is analyzed using a digital glucometer. Db/db obese mice (n=3: test; n=4: vehicle) were treated daily with 200 μL of isovitexin dissolved in an aqueous solution of PEG 50% (10 mg/kg body weight) or vehicle alone for 5 days. Blood glucose was estimated on day 0, one day prior to initiation of the treatment and on day 5, four hours after withdrawal of food. Blood was obtained from mice by drawing one drop of blood (˜50 μL) from the tail vein for glucose analysis. Blood glucose was analyzed using a digital glucometer and performed in duplicate. Blood glucose values are described as mg/dL±SD. The blood glucose levels in the vehicle treated group (n=4) were 446±35 on day 0 and 477±48 on day 5. […] The results are summarized in Tables 1 and 2 below, and FIG. 1.

In the case of `O=c1cc(-c2ccc(O)cc2)oc2cc(O)c([C@@H]3O[C@H](CO)[C@@H](O)[C@H](O)[C@H]3O)c(O)c12` [Isovitexin, 4H-1-benzopyran-4-one, 6-β-D-glucopyranosyl-5,7-dihydroxy-2-(4-hydroxyphenyl)], the “blood glucose levels, group mean on day 0” value (db/db mice n=3, isovitexin group before treatment, ± SD) stood at 493 ± 54 mg/dL. In addition, the “blood glucose levels, group mean on day 5” value (db/db mice n=3, oral 10 mg/kg daily for 5 days, ± SD) was determined as 404 ± 10 mg/dL. Moreover, the “lowering of blood glucose (in words)” value (db/db mice, 10 mg/kg body weight) is “effective in lowering of blood glucose”. Further, for the setting “db/db mice, isovitexin group baseline day 0, one day prior to treatment, ± SD of duplicate”, the “blood glucose levels, before treatment (day 0), individual mouse” value is 473 ± 6.36 mg/dL and 554 ± 7.07 mg/dL and 451 ± 21 mg/dL. The “blood glucose levels, after treatment with isovitexin (day 5), individual mouse” value (db/db mice, oral 10 mg/kg daily for 5 days, 4 h after food withdrawal, ± SD of duplicate, 10 mg/kg) was 400 ± .71 mg/dL and 415 ± 21.9 mg/dL and 396 ± 2.12 mg/dL. The “% change in blood glucose after 5 days of treatment (decrease)” value (db/db mice, oral 10 mg/kg daily for 5 days, 10 mg/kg) is 17.8 ± 7.21 (decrease) % and the “% change in blood glucose after 5 days of treatment (decrease)” value (db/db mice, oral 10 mg/kg daily for 5 days, listed as DP-1032T, 10 mg/kg) is reported as approximately 17.8%.
